Source: patent publication US20250075249A1, “AND-GATE ALLOSTERIC PROTEIN-BASED SWITCHES” (QUEENSLAND UNIVERSITY OF TECHNOLOGY, priority 2022, published 2025)

Tests used:
[1] = tested on: M13 CaM-BP; test: GDH-CaM chimera activity, PMS/DCPIP assay with or without CaM-BP; assay type: biochemical; details: 10 nM chimera, presence vs absence of 1 μM M13 CaM-BP
Protocol: FIG. 11. Construction of a glucose dehydrogenase (GDH) AND gate biosensor. (A) GDH-CaM 48N activation by CaM-BP. activity analysis of a solution of 10 nM GDH-CaM 48N in the presence of 0.6 mM PMS as electron mediator and 60 μM DCPIP reporter dye in the presence of absence of 1 μM of M13 CaM-BP. (B) GDH-CaM 212N activation by CaM-BP. activity analysis of a solution of 10 nM GDH-CaM 212N in the presence of 0.6 mM PMS as electron mediator and 60 μM DCPIP reporter dye in the presence of absence of 1 μM of M13 CaM-BP. (C) GDH-CaM 48N_212N activation by CaM-BP. activity analysis of a solution of 10 nM GDH-CaM 48N_212N in the presence of 0.6 mM PMS as electron mediator and 60 μM DCPIP reporter dye in the presence of absence of 1 μM of M13 CaM-BP.
A range of insertion mutants of the enzyme glucose dehydrogenase (GDH) and calmodulin were constructed. […] The activity of GDH was monitored using 5-methylphenazinium methyl sulfate (PMS) as an electron mediator and 2,6-dichlorophenolindophenol (DCPIP) as a reporter dye, which upon reduction changes from blue to colourless. The GDH structure (PDB: 1c9u) was analysed and a library of CaM domain insertions was generated. […]
E.coli and purified to homogeneity. […] The activity of the wild type GDH as well as the GDH-CaM chimeras was monitored in the presence or absence of CaM-BP (M13). […]

[2] = tested on: M13 CaM-BP; test: BLA-CaM chimera activity, nitrocefin assay with or without CaM-BP; assay type: biochemical
Text: FIG. 5. Construction of β-lactamase single insert CaM chimeras (BLA-CaM). (A) A schematic showing th β-lactamase (BLA) assay. BLA degrades the beta-lactam ring nitrocefin. which can be detected by a colour change from yellow to red, for example using a wavelength λ=482 nm (wavelengths of λ=486 nm and λ=480 nm may also be used). […] (C) Activity of purified BLA-CaM chimeras in the presence (interrupted line) or absence (solid line) of saturating concentrations of M13 peptide. The insertion position is indicated by a number and a letter denoting deleted amino acid.
FIG. 6. Construction of B-lactamase double insert CaM chimeras (2CaM-BLA). (A) Activity analysis of a solution of 250 nM BLA-CaM 41G in the presence of 50 μM nitrocefin and in the presence (interrupted line) or absence (solid line) of 1 μM of M13 CaM-BP. […]
A range of insertion mutants of the enzyme β-lactamase (BLA) and calmodulin were constructed. β-lactamase degrades the beta-lactam ring in nitrocefin, which can be detected by a colour change from yellow to red (FIG. 5A). The β-lactamase structure (PDB: 3gmw) was analysed and a range of Calmodulin (BLA-CaM) chimeras were designed. […] The activity of the wild type β-lactamase as well as the BLA-CaM chimeras was monitored in the presence or absence of CaM-BP (M13). […]

Row | Substance | dynamic range [1] | activity retained compared to the wild type enzyme ([2]; 10 nM enzyme, saturating M13 CaM-BP) | dynamic range ([2]; 50 μM nitrocefin, presence vs absence of M13 CaM-BP)
1 | GDH-CaM 48N_212N: Glucose dehydrogenase with calmodulin insertions at positions 48 and 212 | over 20 fold | – | –
2 | BLA-CaM 41G_197E: β-lactamase with calmodulin insertions at positions 41 and 197 | – | about 25% | over 7000 fold
